Assay [1] concerns the target surface H-2K^b (Mus musculus, UniProt P01901). The assay is described as follows: Flow cytometric analysis of surface H-2K^b expression. Format: cell-based, murine. The method, then: Cells untreated (shaded areas) or treated with 100 ng/ml TSA (thick lines), or 50 ng/ml IFN-γ (thin lines), were stained with PE-conjugated anti-H-2K^bmAb. Data are representatives of three experiments.
In general terms: In flow cytometry, cells or beads pass a laser one at a time.

Assay [2] relates to TAP-2. Put plainly: RT-PCR analysis of APM components: TAP-2. Particulars: HPV-positive carcinoma cell lines, particularly TAP-deficient cells.
Assay [3] relates to TAP-1 promoter. Put plainly: Luciferase assay in cells stably transfected with pTAP-1-luc construct. It counts as cell-based, murine. The text has this: A plasmid containing an EGFP gene driven by the TAP-1 promoter (pTAP-1-EGFP) was constructed as described previously. A similar construct containing a luciferase gene driven by the TAP-1 promoter (pTAP-1-luc) was created by inserting the TAP-1 promoter between the Sac I and BgI II sites of pGL4.14[luc2/Hygro] vector (Promega, Madison, Wis.). Several truncated TAP-1 promoter constructs were also made by cloning its 5′-end truncations into pGL4.14[luc2/Hygro] vector. Primers were used for PCR amplifications of the full TAP-1 promoter and its truncations.
TC-1, D11, A9, PA and LMD cells were transfected with the TAP-1 promoter constructs or the promoterless pGL4.14[luc2/Hygro] vector using ExGen 500 in vitro Transfection Reagent (Fermentas). Transient transfectants were analyzed between 12-72 hours after transfection. To obtain stable transfectants, the transfected cells were selected for 3 weeks in the presence of the following concentrations of Hygromycin B (Sigma): 550 ng/ml for TC-1 cells, 250 ng/ml for D11, A9 and LMD cells, 200 ng/ml for PA cells.
Relative luciferase activity (RLA) in transient transfectants was assessed by dual luciferase assay (Promega) within 12-72 hours after transfection. RLA in stable transfectants (3 weeks-1 month post-transfection) was assessed by Bright-Glo luciferase assay (Promega), and determined by subtracting the results with corresponding values obtained from transfection with promoterless pGL4.14[luc2/Hygro] vector alone and by further normalizing the values with copy number of plasmids integrated into the genome of each stable transfectant.

For assay [4], the system named is A9 tumour. Put plainly: A9 tumor growth in immunodeficient Rag1 mice. Particulars: TSA treatment. It counts as in vivo. On the procedure: A9 tumor growth was suppressed in C57B1/6 mice treated daily for 20 days with 500 μg/kg of TSA (black bars) as compared to those treated with DMSO vehicle control (white bars). However, TSA treatment had no affect on A9 tumour growth in Ragl^“7” mice.

Assay [5] concerns LMP-2. The assay is described as follows: RT-PCR analysis of APM components: LMP-2. Particulars: HPV-positive carcinoma cell lines, particularly TAP-deficient cells.
Assay [6] relates to VSV-infected cancer cells. Format: cell-based, murine. Particulars: for enhancement of CTL killing / enhancement of levels of killing: treatment 24 hours prior to VSV infection; for enhancement of CTL killing: effector:target 22:1.
For assay [7], the system named is TAP-1 promoter. The assay is described as follows: Chromatin immunoprecipitation with anti-RNA pol II antibody, real-time PCR of TAP-1 promoter. It counts as cell-based, murine. The method, then:
(§1) As the low level of histone H3 acetylation in TAP-1 promoter seems to contribute to TAP-1 deficiency in carcinomas, a further investigation was conducted to determine whether treatment of TAP-deficient carcinoma cells with TSA would increase the TAP-1 expression in the cells. […] Relative RNA pol II or acetyl-histone H3 levels were determined as the ratio of copy numbers of the eluted TAP-1 promoter and copy numbers of the corresponding inputs. The smallest ratio was arbitrarily determined as 1. Columns, average of three to six experiments; bars, SEM. *P<0.05 compared with cells that expressed higher MHC class I in the same assay.
A general note: Real-time PCR tracks product formation cycle by cycle.

The test system of assay [8] is tapasin. The assay is described as follows: RT-PCR analysis of APM components: tapasin. Particulars: HPV-positive carcinoma cell lines, particularly TAP-deficient cells.
Assay [9] concerns A9 tumor. Put plainly: A9 tumor growth in C57BL/6 syngeneic mice. Format: in vivo, C57BL/6 mice. Particulars: A9 cells s.c., 500 μg/kg daily i.p. for 20 days from day 7, versus DMSO control. The method, then: A total of 3×10^5 cells of TC-1 or A9 in PBS were injected subcutaneously into seven-week-old female C57BL/6 syngeneic mice (Charles River, St. Constant, QC). Mice were assigned to 3 groups of 4 animals. TSA was dissolved in DMSO to a concentration of 0.2 mg/ml. Daily treatment with 50 ul TSA (500 μg/kg) or DMSO (vehicle control) was administered via intraperitoneal injection for 20 days, starting on day 7 after injection with tumor cells. Mice were weighed weekly, and their behavior and food intake were monitored throughout the course of the experiment. Tumors were measured 3 times a week and tumor volume was calculated using the formula: tumor volume=length×width×height×π/6. The study period was determined by the size of the tumors in the A9 group treated with DMSO vehicle control.
TC-1 and A9 cells were cultured in vitro and were passaged less than 8 times before 3×10^5 of each group of the cells were injected subcutaneously into 7 week-old female C57BL/6 syngeneic mice. Daily treatment with TSA or DMSO vehicle control began on day 7 after cells injection, as the animals started to grow palpable A9 tumors. […] No tumor was detected beyond 1 month after injection with less than 3×10^5 TC-1 tumor cells (data not shown).

In assay [10] the test system is TAP-1 promoter. Put plainly: Chromatin immunoprecipitation with anti-acetyl-histone H3 antibody, real-time PCR of TAP-1 promoter. Format: cell-based, murine. On the procedure: as §1
Assay [11] has as its system TAP-1. The assay is described as follows: RT-PCR and Western blot analysis of TAP-1 expression. It counts as cell-based, murine. The method, then:
Fifty micrograms of proteins per sample were separated through 6% (p300, CBP and TAP-1) or 15% (β-actin and acetyl-histone H3) SDS-PAGE. Proteins were transferred to a nitrocellulose membrane (Bio-rad, Hercules, Calif.). Blots were blocked with 5% skim milk in PBS and incubated with appropriate Ab dilutions. […] Secondary Ab used was HRP-conjugated goat anti-rabbit secondary Ab (Jackson Immunoresearch Lab., West Grove, Pa.). For the loading controls, anti β-actin mouse monoclonal Ab (Sigma) was used, followed by HRP-conjugated goat anti-mouse secondary Ab (Pierce, Rockford, Ill.). Blots were developed using Lumi-light reagents (Pierce).
Western blot analysis of TAP-1 expression was performed using lysate of cells that were pre-treated with 20 to 200 ng/ml TSA for 24 to 48 hours, and representative data from cells treated with 100 ng/ml TSA for 24 hours (PA and LMD) or 48 hours (TC-1, D11 and A9) are shown in FIG. 4A.
(In western blotting, separated proteins are transferred to a membrane and probed.)

Assay [12] deals with TAP-1 promoter. Put plainly: Chromatin immunoprecipitation with anti-CBP antibody, real-time PCR of 5'-end of TAP-1 promoter. The settings on record: LMD, D11 and A9 cells, IFN-γ treatment.

“Also recorded” adds a separate entry of the source. Like-named read-outs stand apart in the source and are kept apart here.

Sequence of surface H-2K^b (P01901 whole entry, looked up): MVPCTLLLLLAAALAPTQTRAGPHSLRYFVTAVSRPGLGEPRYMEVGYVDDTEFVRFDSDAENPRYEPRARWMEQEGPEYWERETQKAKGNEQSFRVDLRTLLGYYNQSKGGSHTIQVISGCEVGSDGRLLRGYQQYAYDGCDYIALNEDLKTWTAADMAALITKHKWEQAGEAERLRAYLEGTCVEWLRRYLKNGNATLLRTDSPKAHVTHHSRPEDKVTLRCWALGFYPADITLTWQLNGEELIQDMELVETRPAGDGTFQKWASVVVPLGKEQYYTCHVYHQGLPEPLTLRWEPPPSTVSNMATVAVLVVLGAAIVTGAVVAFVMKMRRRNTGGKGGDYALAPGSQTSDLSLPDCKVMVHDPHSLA

On to `CC(/C=C/C(=O)NO)=C\[C@@H](C)C(=O)c1ccc(N(C)C)cc1` [TSA, trichostatin A], for which the “increase of surface expression H-2K^b” value in assay [1] (MHC class I-deficient cells, 100 ng/ml TSA) was “approximately 10 fold”. In [1] (PA and TC-1 cells (originally high surface H-2K)), the “surface H-2K^b levels” value is given as “remained the same”. In [2], the “expression of TAP-2” value is reported as “up-regulation”. The TAP-1 promoter activity result is listed as “to similar levels as in TAP-expressing cells” in assay [3] (HPV-positive carcinoma model, TAP-deficient cells) and “statistically significant improvement” in assay [3] (prostate carcinoma model, LMD cells). The “TAP-1 promoter activity (luc expression)” value in [3] (TAP-deficient cells stably transfected with pTAP-1-luc) is on record as “increased significantly”. In addition, in assay [4], the tumour growth entry is “no affect”. Also, the “expression of LMP-2” value in [5] is on record as “up-regulation”. Moreover, the “enhancement of CTL killing” value was approximately 7 fold in assay [6] (VSV-infected A9 cells), approximately 6 fold in assay [6] (VSV-infected D11 cells) and “approximately 1.4 fold” in [6] (VSV-infected TC-1 cells). The results for the “enhancement of levels of killing” value in assay [6] (VSV-infected B16 cells) and in [6] (VSV-infected CMT.64 cells) were 20 fold and 5 fold, respectively. For the same molecule, the “level of RNA pol II binding to TAP-1 promoter” value in assay [7] (TSA treatment, TAP-deficient cells of HPV-positive and prostate carcinoma models) is reported as “to similar levels as in TAP-expressing cells”. Further, the “recruitment of RNA pol II complex to the TAP-1 promoter” value in assay [7] (TSA treatment, most cell lines, particularly TAP-deficient cells) is listed as “enhanced”. For the same molecule, the expression of tapasin entry in assay [8] is on record as “up-regulation”. Further, in assay [9], the tumor growth entry is given as “suppressed; also recorded: slower”. The “levels of acetyl-histone H3 in TAP-1 promoter” value in [10] (TSA treatment, all cell lines tested) is listed as “did not significantly alter”. Besides, the “Optimal dose for optimal induction of TAP-1 expression” value in assay [11] (24 hours in LMD, CMT.64 and B16, 48 hours in D11 and A9) was determined as 100 ng/mL. Moreover, the “expression of TAP-1” value in assay [11] (RT-PCR and Western blot, 100 ng/ml for 24 h (PA, LMD) or 48 h (TC-1, D11, A9)) is on record as “up-regulated”. The “TAP-1 expression upon increasing the dose” value in assay [11] (Western blot, TAP-deficient cells, 20 to 200 ng/ml for 24 to 48 hours) is “increasing levels of TAP-1 expression”.

B1: IFN-γ: potent inducer of TAP-1 and surface MHC class I expression in cancer cells, used as positive control (protein, UniProt P01579 24-161, looked up)
Interferon gamma: QDPYVKEAENLKKYFNAGHSDVADNGTLFLGILKNWKEESDRKIMQSQIVSFYFKLFKNFKDDQSIQKSVETIKEDMNVKFFNSNKKKRDDFEKLTNYSVTDLNVQRKAIHELIQVMAELSPAAKTGKRKRSQMLFRG
Turning to B1, the “surface H-2K^b expression” value in [1] (all cell lines, 50 ng/ml IFN-γ) is reported as “increased”. In assay [2], the “expression of TAP-2” value is listed as “inducible”. Also, the “expression of LMP-2” value in assay [5] was “inducible”. Besides, the “level of killing by CTL” value in assay [6] (all VSV-infected cell lines, IFN-γ treatment) is on record as “maximal induction”. Further, the “level of RNA pol II in TAP-1 promoter” value in assay [7] (IFN-γ treatment) is given as “increased”. Besides, in assay [10] (IFN-γ treatment), the “level of acetyl-histone H3 in TAP-1 promoter” value is on record as “increased”. The “histone H3 acetylation in TAP-1 promoter” value in [10] (TAP-deficient cells, IFN-γ compared with TSA) is “to much higher levels than TSA did”. The “CBP binding to TAP-1 promoter” value in assay [12] is given as “increase”.

For the origin of these results see patent US20100166781A1, “HAT ACETYLATION PROMOTERS AND USES OF COMPOSITIONS THEREOF IN PROMOTING IMMUNOGENICITY” (Tapimmune, Inc., priority 2008, published 2010).
